Test results: patent US10544156B2, “Hemi-synthetic trilobine analogs for use as a drug” (PIERRE FABRE MEDICAMENT, priority 2015, dated 2020)

Tests used:
[1] = system: P15 promoter in leukaemia KG1 cells; test: C5 DNA methylation analysis of CDKN2B (P15) promoter; format: cell-based, human; settings: after 3 days, at 0.32 μM
Protocol: (§1) Cancer cell lines (colon HCT116 or leukaemia KG1) were treated with the compounds as indicated in the Data Tables and then analysed as following.
(§2) DNA was isolated from cultured cells using the DNeasy Blood and Tissue Kit according to the manufacturer's specifications (Qiagen). DNA bisulphite conversion was performed on 2 μg of DNA using the EZ DNA Methylation-Gold Kit according to the manufacturer's specifications (Zymo Research) and bisulfited DNA was eluted with 10 μL of water.
(§3) Two different techniques were used to analyse the DNA methylation profile after bisulfite conversion of genomic DNA: (A) cloning and sequencing or (B) COBRA. The primers for each promoter are specified in Table 4.
(§4) Sequencing of bisulfite-treated DNA allowing resolution of the methylation state of every cytosine in the target sequence, at single molecule resolution, is considered as the “gold standard” for DNA methylation analysis.
(§5) Bisulfite-specific primers with a minimum length of 18 bp were designed using Primer 3 program. […]
(§6) PCR amplicons were cloned with the StrataClone Ultra Blunt PCR Cloning Kit (Agilent Technologies), according to the manufacturers' instructions and up to 24 clones were picked for sequencing. […] Electrophoregram files and methylation signals at a given CpG site were quantified using the BISMA software as described above.

P73 promoter in HCT116 = test: C5 DNA methylation analysis of P73 promoter; format: cell-based, human; settings: after 7 days, at 0.32 μM
Protocol: as §1, §2, §3, §4, §5, §6

| Structure (SMILES) | Demethylation P15/KG1 [1] [% after] | Demethylation P73*/HCT116 (P73 promoter in HCT116) |
| --- | --- | --- |
| COc1ccc2cc1Oc1ccc(cc1)C[C@@H]1NCCc3cc(OC)c4c(c31)Oc1cc3c(cc1O4)CCN(C)[C@H]3C2 [Trilobine (1), trilobine] | −25 | – |
| CCN(CC)CCCNC(=S)N1CCc2cc3c4cc2[C@@H]1Cc1ccc(OC)c(c1)Oc1ccc(cc1)C[C@H]1c2c(cc(OC)c(c2O4)O3)CCN1C(=S)NCCCN(CC)CC [Product 41] | – | *−24% after 7 days |
| CNC(=O)N1CCc2cc(OC)c3c4c2[C@@H]1Cc1ccc(cc1)Oc1cc(ccc1OC)C[C@H]1c2cc(c(cc2CCN1C)O3)O4 [Product 44] | – | *−17% after 7 days |
